Values quoted from earlier work as cited in PubChem BioAssay AID1259409 (Chemical Carcinogenesis Research Information System (CCRIS), 2018).

Tested on: rodent chemically induced tumor inhibition, incidence and multiplicity
Assay: CCRIS tumor inhibitor studies
Details: Dose [Inhibitor]: 0

SMILES: CO[C@@H]1[C@H](OC(=O)NC(=O)CCl)CC[C@]2(CO2)[C@H]1[C@@]1(C)O[C@@H]1CC=C(C)C
- tumour outcome (control, treated, inhibition, significance) (Carcinogen: N-METHYL-N-NITROSOUREA, 684-93-5, 1 UG/ML IN URINE 1/WK FOR 10 WK INSTILLED INTO HETEROTROPICALLY TRANSPLANTED BLADDER BEGINNING 21 WK POST CARCINOGEN, Route [Inhibitor]: INTRAVESICULAR, Species: RAT, Strain/Sex: F344/MALE, Target Tissue: Type of Lesion: BLADDER: TUMOR, Dose [Carcinogen]: 0.25 MG IN 0.5 ML OF 0.9% SALINE INSTILLED INTO HETEROTROPICALLY TRANSPLANTED BLADDER ONCE, Promoter: NONE USED): 24/38 (63%), 9/24 (38%), 40%, p=0.08
- tumour outcome (control, treated, inhibition, significance) (Carcinogen: N-METHYL-N-NITROSOUREA, 684-93-5, 1 UG/ML IN URINE 1/WK FOR 27 WK INSTILLED INTO HETEROTROPICALLY TRANSPLANTED BLADDER BEGINNING 4 WK POST CARCINOGEN D, Route [Inhibitor]: INTRAVESICULAR, Species: RAT, Strain/Sex: F344/MALE, Target Tissue: Type of Lesion: BLADDER: TUMOR, Dose [Carcinogen]: 0.25 MG IN 0.5 ML OF 0.9% SALINE INSTILLED INTO HETEROTROPICALLY TRANSPLANTED BLADDER ONCE, Promoter: NONE USED): 24/38 (63%), 14/37 (38%), 40%, p<0.05

SMILES: CN(C)CCOc1ccc(/C(=C(/CCCl)c2ccccc2)c2ccccc2)cc1
- tumour outcome (control, treated, inhibition, significance) (Carcinogen: N-METHYL-N-NITROSOUREA (684-93-5), 0.2 MG/30 G BW ONCE EVERY 4 WK BEGINNING 1 WK POST CARCINOGEN DOSE (STUDY DURATION: 31 WK), Route [Inhibitor]: SUBCUTANEOUS, Species: MOUSE, Strain/Sex: ICR/FEMALE, Target Tissue: Type of Lesion: UTERUS: ENDOMETRIAL ADENOCARCINOMA, Dose [Carcinogen]: 1 MG/100 G BW IN 0.1 ML SALINE ONCE AT 10 WKS OF AGE, Promoter: 17 BETA-ESTRADIOL (50-28-2)): 8/24 (33%), 1/19 (5%), 85%, p< 0.01
- tumour outcome (control, treated, inhibition, significance) (Carcinogen: N-METHYL-N-NITROSOUREA, 684-93-5, 100 MG/KG IN DIET FOR 28 D THEN REDUCED TO 50 MG/KG IN DIET FOR THE DURATION OF STUDY (STUDY DURATION: 187 D), Route [Inhibitor]: ORAL, Species: RAT, Strain/Sex: SPRAGUE-DAWLEY/FEMALE, Target Tissue: Type of Lesion: MAMMARY GLAND: TUMOR, Dose [Carcinogen]: 50 MG/KG BW ONCE, Promoter: NONE USED): 100%, 46%, 54%, p<0.05

SMILES: CCC1(c2ccc(N)cc2)CCC(=O)NC1=O (stereo not given)
- tumour outcome (control, treated, inhibition, significance) (Carcinogen: N-METHYL-N-NITROSOUREA, 684-93-5, 400 MG/KG IN DIET FOR THE DURATION OF STUDY BEGINNING 7 D PRIOR TO CARCINOGEN DOSE (STUDY DURATION: 187 D), Route [Inhibitor]: ORAL, Species: RAT, Strain/Sex: SPRAGUE-DAWLEY/FEMALE, Target Tissue: Type of Lesion: MAMMARY GLAND: TUMOR, Dose [Carcinogen]: 50 MG/KG BW ONCE, Promoter: NONE USED): 100%, 100%, 0%, not significant
